The record followed here is patent US20180073018A1, “COMPOSITIONS AND METHODS FOR SPECIFIC REACTIVATION OF HIV LATENT RESERVOIR” (priority 2015, published 2018).

For this data set, the system named is TZM-bI cells. The data set can be described thus: CellTiter-Glo luminescent cell viability assay in TZM-bI cells. It counts as cell-based. The note with it: TZM-bI, 5,000 nM. The method, then: FIG. 10A, FIG. 10B: TZM-bI cells were infected with indicated lentiviruses for 1 d and triple antibiotic selection with puromycin/hygromycin/zeoin (P/H/Z) was maintained for 4 d before passage, OneGlo luciferase reporter assay (FIG. 10A) and CellTiter-Glo® luminescent cell viability assay (FIG. 10B). FIG. 10C, FIG. 10D: CHME5 cells were infected with indicated lentiviruses and cultured for 5 d in the absence or presence of P/H/Z triple selection. Flow cytometry analysis was performed for reactivation efficiency (FIG. 10C) and total survival cell number (FIG. 10D). FIG. 10E: Caspase-Glo® 3/7 Assay was performed at 2 dpi to evaluate apoptotic cell death. […] FIG. 10F, FIG. 10G: The 2D10 cells were infected for 1 and 4 dpi, and the reactivation efficiency (FIG. 10F) and relative total survival cell number (FIG. 10G) were determined by flow cytometry. *p<0.05 and **p<0.01 indicate statistical significance by ANOVA and FLSD test.
FIG. 12A, FIG. 12B, FIG. 12C: The dCas9-VPH stable TZM-bI cells were treated with SAHA or infected with indicated msgRNAs lentivirus for 2-4 d before luminescence reporter assay (FIG. 12A) and CELLTITER-GLO® luminescent cell viability assay (FIG. 12B). […]
The cell growth/proliferation was determined by the trypan blue exclusion hemocytometry, and CELLTITER-GLO luminescence viability assay (Promega). […]
In general terms: In ATP-based viability assays light output follows the ATP content of the culture.

For `O=C(CCCCCCC(=O)Nc1ccccc1)NO` [SAHA, suberoylanilide hydroxamic acid], the cell viability entry was “killed all the cells”.
